ChEMBL document CHEMBL3734669, “Δ(5)-Cholenoyl-amino acids as selective and orally available antagonists of the Eph-ephrin system” (Eur J Med Chem, 2015)
In brackets after ≈: the same amount, converted by molar mass. Activity calls are given as the source filed them. The rule behind the calls is not given here.

Legend:
[1] = Kinetic solubility of the compound in NaCl solution at 25 deg C after 2 hrs by HPLC-ESI-MS/MS analysis; assay type: physicochemical; details: read-out: Kinetic_solubility
[2] = target: Ephrin type-A receptor 5 (Homo sapiens, UniProt P54756); assay: Displacement of biotinylated ephrin-A1-Fc from EphA5 (unknown origin) preincubated for 1 hr followed by biotinylated-ephrin-A1-Fc addition measured after 4 hrs by ELISA
Ephrin type-A receptor 5, sequence (P54756 whole entry): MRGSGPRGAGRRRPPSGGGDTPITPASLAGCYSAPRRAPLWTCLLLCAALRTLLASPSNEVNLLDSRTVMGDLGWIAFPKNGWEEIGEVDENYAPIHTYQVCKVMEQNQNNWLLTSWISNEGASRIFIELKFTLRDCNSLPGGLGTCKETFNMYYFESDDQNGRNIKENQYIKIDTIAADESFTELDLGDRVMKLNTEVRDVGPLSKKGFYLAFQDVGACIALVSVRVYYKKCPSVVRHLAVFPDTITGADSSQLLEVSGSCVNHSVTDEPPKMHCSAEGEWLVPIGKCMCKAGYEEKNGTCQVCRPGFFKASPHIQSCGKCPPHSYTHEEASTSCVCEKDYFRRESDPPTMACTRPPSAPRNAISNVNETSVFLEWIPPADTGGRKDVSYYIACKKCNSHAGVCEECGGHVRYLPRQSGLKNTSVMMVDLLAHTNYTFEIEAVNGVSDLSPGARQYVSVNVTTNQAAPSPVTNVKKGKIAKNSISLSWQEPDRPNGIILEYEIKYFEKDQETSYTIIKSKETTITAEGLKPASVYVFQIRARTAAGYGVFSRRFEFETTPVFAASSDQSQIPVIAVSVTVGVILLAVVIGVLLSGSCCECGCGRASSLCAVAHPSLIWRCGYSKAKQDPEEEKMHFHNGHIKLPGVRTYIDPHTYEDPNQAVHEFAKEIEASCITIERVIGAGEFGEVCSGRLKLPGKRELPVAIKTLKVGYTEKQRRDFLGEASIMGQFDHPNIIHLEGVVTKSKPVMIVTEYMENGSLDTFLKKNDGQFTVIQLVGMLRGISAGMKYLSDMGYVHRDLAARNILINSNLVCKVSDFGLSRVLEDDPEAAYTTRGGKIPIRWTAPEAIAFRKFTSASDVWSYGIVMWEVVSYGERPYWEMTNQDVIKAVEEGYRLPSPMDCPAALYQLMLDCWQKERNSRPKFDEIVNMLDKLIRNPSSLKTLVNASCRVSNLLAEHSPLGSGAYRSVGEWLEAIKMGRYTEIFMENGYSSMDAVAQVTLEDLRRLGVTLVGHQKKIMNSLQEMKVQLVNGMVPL

[3] = target: T1, G-protein coupled bile acid receptor 1 (Homo sapiens) (UniProt Q8TDU6); assay: Agonist activity at TGR5 (unknown origin) assessed as cAMP level up to 30 uM; assay type: functional
T1 sequence (whole entry): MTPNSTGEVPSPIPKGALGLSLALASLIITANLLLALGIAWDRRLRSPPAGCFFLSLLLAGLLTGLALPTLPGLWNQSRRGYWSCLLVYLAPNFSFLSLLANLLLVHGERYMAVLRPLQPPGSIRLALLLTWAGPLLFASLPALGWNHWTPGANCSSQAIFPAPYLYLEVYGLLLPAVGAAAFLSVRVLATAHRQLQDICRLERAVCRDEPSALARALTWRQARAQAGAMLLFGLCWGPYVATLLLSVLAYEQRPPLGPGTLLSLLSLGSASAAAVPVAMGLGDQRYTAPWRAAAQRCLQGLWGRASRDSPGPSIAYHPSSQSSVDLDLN

[4] = target: T2, Ephrin type-B receptor 4 (Homo sapiens) (UniProt P54760); assay: Displacement of biotinylated ephrin-B1-Fc from EphB4 (unknown origin) preincubated for 1 hr followed by biotinylated-ephrin-B1-Fc addition measured after 4 hrs by ELISA
T2 sequence (whole entry): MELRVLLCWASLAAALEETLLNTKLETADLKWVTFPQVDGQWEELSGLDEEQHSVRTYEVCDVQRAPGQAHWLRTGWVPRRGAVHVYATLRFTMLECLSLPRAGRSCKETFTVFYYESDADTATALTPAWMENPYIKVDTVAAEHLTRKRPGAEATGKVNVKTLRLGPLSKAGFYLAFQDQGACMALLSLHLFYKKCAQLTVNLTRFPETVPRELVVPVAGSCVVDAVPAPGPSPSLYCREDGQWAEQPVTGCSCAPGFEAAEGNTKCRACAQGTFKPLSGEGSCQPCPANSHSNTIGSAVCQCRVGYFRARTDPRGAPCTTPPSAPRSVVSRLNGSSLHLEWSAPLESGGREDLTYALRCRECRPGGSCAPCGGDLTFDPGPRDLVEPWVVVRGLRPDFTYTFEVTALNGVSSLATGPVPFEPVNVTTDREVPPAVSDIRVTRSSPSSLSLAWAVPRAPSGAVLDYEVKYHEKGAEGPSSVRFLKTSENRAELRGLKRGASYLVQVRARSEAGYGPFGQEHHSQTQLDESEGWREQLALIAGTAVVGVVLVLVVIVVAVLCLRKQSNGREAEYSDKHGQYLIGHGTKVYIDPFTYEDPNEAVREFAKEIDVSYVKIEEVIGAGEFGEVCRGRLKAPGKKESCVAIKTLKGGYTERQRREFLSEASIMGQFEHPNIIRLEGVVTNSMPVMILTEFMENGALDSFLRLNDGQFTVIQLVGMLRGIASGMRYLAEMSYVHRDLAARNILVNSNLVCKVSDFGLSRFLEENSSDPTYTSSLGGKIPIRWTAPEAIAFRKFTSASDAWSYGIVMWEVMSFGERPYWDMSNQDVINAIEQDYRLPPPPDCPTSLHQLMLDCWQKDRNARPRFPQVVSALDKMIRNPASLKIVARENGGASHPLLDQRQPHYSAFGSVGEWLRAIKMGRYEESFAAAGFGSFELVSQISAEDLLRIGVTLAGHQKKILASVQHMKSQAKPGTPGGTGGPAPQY

[5] = target: Ephrin type-A receptor 7 (Homo sapiens, UniProt Q15375); assay: Displacement of biotinylated ephrin-A1-Fc from EphA7 (unknown origin) preincubated for 1 hr followed by biotinylated-ephrin-A1-Fc addition measured after 4 hrs by ELISA
[6] = target: T3, Ephrin type-A receptor 6 (Homo sapiens) (UniProt Q9UF33); assay: (§1) Displacement of biotinylated ephrin-A1-Fc from EphA6 (unknown origin) preincubated for 1 hr followed by biotinylated-ephrin-A1-Fc addition measured after 4 hrs by ELISA
T3 sequence (whole entry): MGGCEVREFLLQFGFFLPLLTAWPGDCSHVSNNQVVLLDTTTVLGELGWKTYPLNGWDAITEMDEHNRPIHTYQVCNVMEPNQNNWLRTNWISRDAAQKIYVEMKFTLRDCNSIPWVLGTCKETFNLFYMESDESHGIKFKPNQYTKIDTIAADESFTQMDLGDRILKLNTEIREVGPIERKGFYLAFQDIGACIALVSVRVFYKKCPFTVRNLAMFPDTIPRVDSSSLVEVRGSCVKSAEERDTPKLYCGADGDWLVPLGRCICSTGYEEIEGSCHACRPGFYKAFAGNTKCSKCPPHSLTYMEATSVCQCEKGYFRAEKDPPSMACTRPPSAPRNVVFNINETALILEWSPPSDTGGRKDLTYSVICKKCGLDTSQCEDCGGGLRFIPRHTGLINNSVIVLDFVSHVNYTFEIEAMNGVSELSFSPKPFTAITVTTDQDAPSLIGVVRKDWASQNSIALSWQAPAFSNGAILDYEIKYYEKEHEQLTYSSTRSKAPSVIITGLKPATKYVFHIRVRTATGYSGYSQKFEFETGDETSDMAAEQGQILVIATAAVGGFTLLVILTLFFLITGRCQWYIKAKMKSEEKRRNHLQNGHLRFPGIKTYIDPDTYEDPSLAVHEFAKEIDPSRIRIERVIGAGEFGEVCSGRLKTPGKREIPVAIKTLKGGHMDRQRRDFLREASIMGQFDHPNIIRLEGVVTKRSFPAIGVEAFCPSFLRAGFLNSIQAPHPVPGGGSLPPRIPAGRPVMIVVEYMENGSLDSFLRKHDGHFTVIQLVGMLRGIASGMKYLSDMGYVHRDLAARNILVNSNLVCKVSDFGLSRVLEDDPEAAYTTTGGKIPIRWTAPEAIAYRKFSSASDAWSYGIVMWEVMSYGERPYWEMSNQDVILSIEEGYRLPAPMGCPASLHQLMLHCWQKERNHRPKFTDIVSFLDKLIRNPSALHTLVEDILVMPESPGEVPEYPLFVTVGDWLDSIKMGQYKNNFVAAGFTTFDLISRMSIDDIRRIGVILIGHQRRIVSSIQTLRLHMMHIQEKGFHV

[7] = target: T4, Ephrin type-A receptor 6 (Homo sapiens, UniProt Q9UF33); assay: as §1
T4 sequence (Q9UF33 whole entry): T3 sequence (whole entry)

## C[C@H](CCC(=O)N[C@@H](Cc1c[nH]c2ccccc12)C(=O)O)[C@H]1CC[C@H]2[C@@H]3CC=C4C[C@@H](O)CC[C@]4(C)[C@H]3CC[C@]12C
[1]
  solubility kinetic at 2 h: 31.5 µM (≈ 17.7 µg/mL)
[2]
  IC50: 2600 nM
  inhibition: Dose-dependent effect
[3]
  Activity: inactive
[4]
  inhibition: Dose-dependent effect
[5]
  IC50: 2500 nM
  inhibition: Dose-dependent effect
[6]
  inhibition: Dose-dependent effect
[7]
  IC50: 3500 nM
